From patent publication US20240300927A1, “AMIDES AS CBL-B INHIBITORS” (Genentech, Inc., priority 2021, published 2024) come the findings set out here.

pIC50: −log10 of the molar value.

For one experiment, the target named is c-Cbl (Homo sapiens (Human), UniProt P22681). Kind of experiment: C-cbl LCK Ub TR-FRET assay (C-cbl Lck HTRF). The experiment is classed as biochemical. Here is the method: (§1) Compounds were 3-fold serially diluted in DMSO in a 384-well polypropylene plate (#P-05525-BC; Labcyte) to generate a source plate with 10 concentrations of each compound, top concentration=2 mM. 80 nL of DMSO or compounds were transferred to each well of a black 384-well ProxiPlate (#6008260; PerkinElmer) using a Labcyte Echo. 1× assay buffer (50 mM HEPES pH7.0, 100 mM NaCl, 0.01% BSA, 0.01% Triton-X100, 1 mM DTT), 2× enzyme solution (16 nM Biotin-Cbl-b or 12 nM Biotin-c-Cbl in 1× assay buffer), 2× kinase mixture (120 nM His-LCK, 1 mM ATP, 10 mM MgCl2 in assay buffer) and 2.33× detection mixture (4.66× solution 1: 163 nM Anti-HA-D2 antibody (#610HADAB; PerkinElmer), 27.96 nM Streptavidin-EU (#AD0062; PerkinElmer), 1.398 mM EDTA in 1× assay buffer+4.66× solution 2: 2.796 μM UBE2D2/Methylated-HA-Ubiquitin thioester adduct (BostonBiochem) in 1× assay buffer) were prepared. 4 μL of 2× enzyme solution was added to each well containing compound, briefly centrifuged to mix, and incubated for 60 min at room temperature. 4 μL of 2× kinase mixture was added, briefly centrifuged to mix, and incubated for 90 min. at room temperature. 6 μL of detection mixture was added to all wells and briefly centrifuged before incubating for 20 min at room temperature. Plates were read for TR-FRET using an Envision at excitation 340 nm, emission at 615 and 665 nm, 4 flashes per well. IC50 was generated using no LCK as the low control and DMSO as the high control.
(§2) Cbl-b Lck HTRF data in Table 3 is measured according to Example 25 herein; C-cbl Lck HTRF data is measured according to Example 25 herein.
(§3) SPR and the LCK biochemical assay are orthogonal assays: SPR is a protein binding assay while the LCK assay is an enzyme activity assay. SPR measures compound binding affinity to CBL-B/C-CBL, whereas LCK assay measures compound inhibition of CBL-B/C-CBL ubiquitin transfer activity.

For another experiment, the target named is Cbl-b (Homo sapiens (Human), UniProt Q13191). The experiment in a line: Cbl-b LCK Ub TR-FRET assay (Cbl-b Lck HTRF). Conditions: for (fold-selectivity): Cbl-b and C-Cbl selectivity, Lck HTRF; for pIC50: read-out: Cbl-b Lck HTRF IC50. The experiment is classed as biochemical. Here is the method:
as §1, §2, §3

Sequence of Cbl-b (Q13191 40-426): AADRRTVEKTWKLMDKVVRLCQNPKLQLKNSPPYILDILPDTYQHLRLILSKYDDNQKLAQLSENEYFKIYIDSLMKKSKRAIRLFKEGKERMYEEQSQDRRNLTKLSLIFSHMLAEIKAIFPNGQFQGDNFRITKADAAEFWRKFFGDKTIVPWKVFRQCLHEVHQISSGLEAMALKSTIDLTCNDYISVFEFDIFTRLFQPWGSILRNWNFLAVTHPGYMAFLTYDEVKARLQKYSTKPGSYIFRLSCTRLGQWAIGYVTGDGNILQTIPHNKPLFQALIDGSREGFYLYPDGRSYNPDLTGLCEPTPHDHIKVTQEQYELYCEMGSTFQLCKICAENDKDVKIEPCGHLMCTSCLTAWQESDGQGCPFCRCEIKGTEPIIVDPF
Sequence of c-Cbl (P22681 47-435): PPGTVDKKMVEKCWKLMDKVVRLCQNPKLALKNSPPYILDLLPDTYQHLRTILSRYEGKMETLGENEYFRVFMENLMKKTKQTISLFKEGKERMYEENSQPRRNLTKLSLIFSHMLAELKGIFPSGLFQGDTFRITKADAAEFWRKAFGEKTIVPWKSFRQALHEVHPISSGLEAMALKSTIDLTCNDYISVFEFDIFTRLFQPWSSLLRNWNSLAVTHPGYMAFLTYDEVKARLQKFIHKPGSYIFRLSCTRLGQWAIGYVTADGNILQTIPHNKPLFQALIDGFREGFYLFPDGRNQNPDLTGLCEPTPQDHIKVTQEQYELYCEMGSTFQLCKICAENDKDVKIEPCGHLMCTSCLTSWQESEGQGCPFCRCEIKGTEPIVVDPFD

For the molecule `C[C@H](c1cc(C(=O)Nc2cccc(C3([C@H](F)c4nncn4C)COC3)c2)nc(C2CC2)c1)N1CCC2(CC2)C1` [Compound 25, 4-((R)-1-(5-azaspiro[2.4]heptan-5-yl)ethyl)-6-cyclopropyl-N-(3-(3-((S)-fluoro(4-methyl-4H-1,2,4-triazol-3-yl)methyl)oxetan-3-yl)phenyl)picolinamide], the pIC50 against c-Cbl and at Cbl-b was 7.70 in each case. The “(fold-selectivity)” value on Cbl-b is on record as “(1.0x)”.

As to `CC(C)[C@H]1CN(C)CCN1Cc1cc(C(=O)Nc2cccc(C3(Cc4nncn4C)COC3)c2)nc(C2CC2)c1` [Compound 498, (S)-6-cyclopropyl-4-((2-isopropyl-4-methylpiperazin-1-yl)methyl)-N-(3-(3-((4-methyl-4H-1,2,4-triazol-3-yl)methyl)oxetan-3-yl)phenyl)picolinamide], the pIC50 against c-Cbl was 8.21. At Cbl-b, the “(fold-selectivity)” value is “(0.62x)” and the pIC50 is 8.00.

With `Cn1cnnc1CC1(c2cccc(NC(=O)c3cc(CN4CC(C)(O)C4)cc(C4CC4)n3)c2)CC(F)(F)C1` [Compound 495, 6-cyclopropyl-N-(3-(3,3-difluoro-1-((4-methyl-4H-1,2,4-triazol-3-yl)methyl)cyclobutyl)phenyl)-4-((3-hydroxy-3-methylazetidin-1-yl)methyl)picolinamide], the figures for the pIC50 against c-Cbl and at Cbl-b were 7.92 and 7.77, respectively. Besides, at Cbl-b, the “(fold-selectivity)” value is “(0.68x)”.

On to `CC(C)[C@H]1CN(C)CCN1Cc1cc(C(=O)Nc2cccc(C3([C@@H](F)c4nncn4C)COC3)c2)nc(C2CC2)c1` [Compound 499, 6-cyclopropyl-N-(3-(3-((R)-fluoro(4-methyl-4H-1,2,4-triazol-3-yl)methyl)oxetan-3-yl)phenyl)-4-(((S)-2-isopropyl-4-methylpiperazin-1-yl)methyl)picolinamide], for which the pIC50 at c-Cbl is 8.15; at Cbl-b, 7.96. For the same molecule, on Cbl-b, the “(fold-selectivity)” value is recorded as “(0.63x)”.

With `C[C@H](c1cc(C(=O)Nc2cccc(C3([C@H](F)c4nncn4C)COC3)c2)nc(C2CC2)c1)N1CC(C)(F)C1` [Compound 115, 6-cyclopropyl-N-(3-(3-((S)-fluoro(4-methyl-4H-1,2,4-triazol-3-yl)methyl)oxetan-3-yl)phenyl)-4-((R)-1-(3-fluoro-3-methylazetidin-1-yl)ethyl)picolinamide], the pIC50 against c-Cbl was 7.25. Also, at Cbl-b, the “(fold-selectivity)” value is “(1.1x)” and the pIC50 was 7.30.

Take `Cn1cnnc1[C@H](F)C1(c2cccc(NC(=O)c3cc(CN4CC(C)(CO)C4)cc(C4CC4)n3)c2)CC(F)(F)C1` [Compound 497, (R)-6-cyclopropyl-N-(3-(3,3-difluoro-1-(fluoro(4-methyl-4H-1,2,4-triazol-3-yl)methyl)cyclobutyl)phenyl)-4-((3-(hydroxymethyl)-3-methylazetidin-1-yl)methyl)picolinamide]: the pIC50 on c-Cbl was 7.48; on Cbl-b, 7.47. Also, the “(fold-selectivity)” value at Cbl-b was “(0.95x)”.

`Cn1cnnc1[C@H](F)C1(c2cccc(NC(=O)c3cc(CN4CCC5(CC5)C4)nc(C4CC4)n3)c2)COC1` [Compound 62, (R)-6-((5-azaspiro[2.4]heptan-5-yl)methyl)-2-cyclopropyl-N-(3-(3-(fluoro(4-methyl-4H-1,2,4-triazol-3-yl)methyl)oxetan-3-yl)phenyl)pyrimidine-4-carboxamide] had a pIC50 against c-Cbl of 6.85. For the same molecule, on Cbl-b, the “(fold-selectivity)” value is recorded as “(1.2x)” and the pIC50 was 6.92.

In turn, `Cn1cnnc1[C@@H](F)[C@@]1(c2cccc(NC(=O)c3cccc(C(F)(F)F)n3)c2)CCO1` [Compound 502, N-(3-((S)-2-((R)-fluoro(4-methyl-4H-1,2,4-triazol-3-yl)methyl)oxetan-2-yl)phenyl)-6-(trifluoromethyl)picolinamide] gave a pIC50 at c-Cbl of 4.70. At Cbl-b, the “(fold-selectivity)” value is on record as “(1.0x)” and the pIC50 was 4.70.

Take `Cn1cnnc1CC1(c2cccc(NC(=O)c3cc(C(CC4CC4)N4CCC5(CC5)C4)cc(C(F)(F)F)n3)c2)COC1` (stereo not drawn) [Compound 505, 4-(2-cyclopropyl-1-(5-azaspiro[2.4]heptan-5-yl)ethyl)-N-(3-(3-((4-methyl-4H-1,2,4-triazol-3-yl)methyl)oxetan-3-yl)phenyl)-6-(trifluoromethyl)picolinamide]: the pIC50 at c-Cbl was 7.41; on Cbl-b it was 7.59. Further, on Cbl-b, the “(fold-selectivity)” value is recorded as “(1.5x)”.

On to `C[C@@H](c1cc(C(=O)Nc2cccc(C3([C@@H](F)c4nncn4C)COC3)c2)nc(C2CC2)c1)N1CC(C)(F)C1` [Compound 112, 6-cyclopropyl-N-(3-(3-((R)-fluoro(4-methyl-4H-1,2,4-triazol-3-yl)methyl)oxetan-3-yl)phenyl)-4-((S)-1-(3-fluoro-3-methylazetidin-1-yl)ethyl)picolinamide], for which the values for the pIC50 on c-Cbl and at Cbl-b were 6.68 and 6.64, respectively. On Cbl-b, the “(fold-selectivity)” value is on record as “(0.94x)”.

Take `C[C@@H](c1cc(C(=O)Nc2cccc(C3(Cc4nncn4C)COC3)c2)nc(C(F)(F)F)c1)N1CCC2(CC2)C1` [Compound 3, (S)-4-(1-(5-azaspiro[2.4]heptan-5-yl)ethyl)-N-(3-(3-((4-methyl-4H-1,2,4-triazol-3-yl)methyl)oxetan-3-yl)phenyl)-6-(trifluoromethyl)picolinamide]: the pIC50 against c-Cbl was 7.33; on Cbl-b, 7.60. For the same molecule, the “(fold-selectivity)” value at Cbl-b was “(1.9x)”.

Consider `Cn1cnnc1[C@@H](F)[C@](C)(F)c1cccc(NC(=O)c2cc(CN3CCC4(CC4)C3)cc(C3CC3)n2)c1` [Compound 38, 4-(5-azaspiro[2.4]heptan-5-ylmethyl)-6-cyclopropyl-N-(3-((1R,2R)-1,2-difluoro-1-(4-methyl-4H-1,2,4-triazol-3-yl)propan-2-yl)phenyl)picolinamide], for which the pIC50 against c-Cbl was 7.38. For the same molecule, on Cbl-b, the “(fold-selectivity)” value was “(1.7x)” and the pIC50 is 7.60.

On to `C[C@H](c1cc(C(=O)Nc2cccc(C3(Cc4nncn4C)COC3)c2)nc(C(F)(F)F)c1)N1CCC2(CC2)C1` [Compound 4, (R)-4-(1-(5-azaspiro[2.4]heptan-5-yl)ethyl)-N-(3-(3-((4-methyl-4H-1,2,4-triazol-3-yl)methyl)oxetan-3-yl)phenyl)-6-(trifluoromethyl)picolinamide], for which the pIC50 was 6.89 at c-Cbl and 7.17 at Cbl-b. Moreover, the “(fold-selectivity)” value on Cbl-b is given as “(1.9x)”.

Take `C[C@@H](c1cc(C(=O)Nc2cccc(C3(Cc4nncn4C)COC3)c2)nc(C(F)(F)F)c1)N1CC(F)C1` [Compound 1, (S)-4-(1-(3-fluoroazetidin-1-yl)ethyl)-N-(3-(3-((4-methyl-4H-1,2,4-triazol-3-yl)methyl)oxetan-3-yl)phenyl)-6-(trifluoromethyl)picolinamide]: the pIC50 against c-Cbl was 6.60. On Cbl-b, the “(fold-selectivity)” value is recorded as “(2.2x)” and the pIC50 is 6.96.

Consider `Cn1cnnc1[C@H](F)[C@](C)(F)c1cccc(NC(=O)c2cc(CN3CC(C)(F)C3)nc(C3CC3)n2)c1` [Compound 43, 2-cyclopropyl-N-(3-((1S,2R)-1,2-difluoro-1-(4-methyl-4H-1,2,4-triazol-3-yl)propan-2-yl)phenyl)-6-((3-fluoro-3-methylazetidin-1-yl)methyl)pyrimidine-4-carboxamide], for which the pIC50 against c-Cbl is 6.13. Moreover, on Cbl-b, the “(fold-selectivity)” value is reported as “(2.3x)” and the pIC50 was 6.49.

With `C[C@@H](c1cc(C(=O)Nc2cccc(C3([C@@H](F)c4nncn4C)COC3)c2)nc(C2CC2)c1)N1CCC2(CC2)C1` [Compound 22, 4-((S)-1-(5-azaspiro[2.4]heptan-5-yl)ethyl)-6-cyclopropyl-N-(3-(3-((R)-fluoro(4-methyl-4H-1,2,4-triazol-3-yl)methyl)oxetan-3-yl)phenyl)picolinamide], the pIC50 was 8.00 at c-Cbl and 7.92 on Cbl-b. The “(fold-selectivity)” value at Cbl-b is “(0.87x)”.

The molecule `Cn1cnnc1[C@@H](F)[C@@](C)(F)c1cccc(NC(=O)c2cc(CN3CCC4(CC4)C3)nc(C3CC3)n2)c1` [Compound 41, 6-(5-azaspiro[2.4]heptan-5-ylmethyl)-2-cyclopropyl-N-(3-((1R,2S)-1,2-difluoro-1-(4-methyl-4H-1,2,4-triazol-3-yl)propan-2-yl)phenyl)pyrimidine-4-carboxamide] had a pIC50 on c-Cbl of 4.92. Also, on Cbl-b, the “(fold-selectivity)” value is “(2.5x)” and the pIC50 was 5.32.

Regarding `Cn1cnnc1[C@H](F)C1(c2cccc(NC(=O)c3cc(CN4CCC5(CC5)C4)cc(C4CC4)n3)c2)COC1` [Compound 5, (R)-4-(5-azaspiro[2.4]heptan-5-ylmethyl)-6-cyclopropyl-N-(3-(3-(fluoro(4-methyl-4H-1,2,4-triazol-3-yl)methyl)oxetan-3-yl)phenyl)picolinamide], at c-Cbl, the pIC50 was 7.52. At Cbl-b, the “(fold-selectivity)” value is “(1.6x)” and the pIC50 is 7.72.
